Measured values taken from US20050255537A1, “Method for monitoring treatment with a parathyroid hormone” (priority 1999, published 2005).

Experiments:
[1] = tested on: postmenopausal women and osteoporotic men; assay: Example 6 spine BMD treatment-response model and BCM response-indicator neural network (women and men); type: in vivo, human
Text: Data from studies in Examples 1 and 5 above were further analyzed to develop more detailed models for the use of bone markers in monitoring and predicting effects of PTH on clinically significant correlates of efficacy in the treatment of osteoporosis, such as bone mineral density (BMD). Population pharmacodynamic (PD) models were developed for total lumbar spine BMD, and the following biochemical markers of bone formation and resportion: PICP, BSAP, NTX, and DPD. The final treatment-response model for total lumbar spine was used to calculate BMD values at 12 months of treatment for each patient, based on the individual's parameter estimates (empirical Bayesian estimate). These predicted BMD measurements were merged with the observed BCM values, at baseline, 1 month, and 3 months of treatment, for patients who completed at least 12 months of LY333334 treatment. A neural network was developed to characterize the relationship between BCM values at 1 and 3 months and response to treatment, as measured by change in total lumbar spine BMD.
The spine BMD placebo-response model characterized change in total lumbar spine BMD over time in osteoporotic patients taking calcium and vitamin D supplements. The BMD treatment-response model was used to characterize change in total lumbar spine BMD during the course of treatment and to identify patient factors influencing response to therapy. This model was also used to provide individual estimates of change in BMD at 12 months. The BCM treatment-response models characterized changes in PICP, BSAP, NTX, and DPD, during the course of treatment.
The individual estimates of change in spine BMD from the final treatment-response model were combined with observed BCM values to develop the response-indicator neural network. The neural network was used to evaluate change in the biochemical markers as early indicators of change in total lumbar spine BMD.
Change in total lumbar spine BMD at 12 months of treatment was calculated from the post-hoc BMD estimates for each patient from the final spine BMD treatment-response model. These BMD estimates were combined with observed BCM values at baseline, 1, and 3 months for all patients completing at least 12 months of LY333334 therapy.
Neural networks were used to evaluate the biochemical markers as potential indicators of bone mineral density response to LY333334 treatment. The relationship between change in biochemical marker values and change in spine BMD is complex and the appropriate model structure is unknown. The neural network approach was chosen to avoid the a priori assumption of a model form. A proprietary artificial neural network program developed at Eli Lilly and Company (described in Wikel J, Dow E, Heathman M. 1996. Interpretive Neural Networks for QSAR. Network Science [available on-line]) was used to evaluate the BCM values as predictors of change in spine BMD. Other back-propagation networks which are known in the art and commercially available also would provide similar results. The BCM values, as well as significant patient factors from the final spine BMD treatment-response model, were used as inputs to the neural network. The network was trained to predict change in total lumbar spine BMD.

PICP, BSAP, NTX, DPD = assay: Example 4 population pharmacodynamic models of biochemical markers (PICP, BSAP, NTX, DPD); type: in vivo, human
Text: Population pharmacodynamic models were developed individually for total lumber spine BMD, femoral neck BMD, procollagen 1 carboxy-terminal propeptide (PICP), bone specific alkaline phosphate (BSAP), urinary N-telopeptide (NTX), and urinary free deoxypyridinoline (DPD). These treatment-response models characterized change in the pharmacodynamic endpoints and identified significant patient factors influencing response to therapy.
The time course of biochemical marker response to LY333334 dose was extensively evaluated as part of the overall population pharmacodynamic analyses. Pharmacodynamic models were developed for four biochemical markers: PICP and BSAP (biochemical measures of bone formation); NTX and […] (biochemical measures of bone resorption). Patient-specific factors that explained some of the variability of each model were identified and included in the model. As an additional evaluation, the relationship between LY333334 exposure and PICP response was modeled. Finally, the biochemical markers were evaluated as potential indicators of response to therapy by modeling the relationship between a change in the biochemical endpoint after 1 month of treatment and the increase in spine and femoral neck BMD after 21 months of treatment. […] Additional patient-specific factors were identified, which further decreased the variability in this predictive model.
An extensive investigation was undertaken to evaluate the time course of biochemical markers of bone formation (PICP and BSAP) and resorption (NTX and DPD) during LY333334 therapy. The population pharmacodynamic evaluation of these biochemical markers included data from approximately 340 patients randomly assigned to receive LY333334 40 μg/day (n≅170) or LY333334 20 μg/day (n≅170). […] Pharmacodynamic models based on linear, exponential, and spline functions of time were evaluated. […] These models reflect the complex time course of change in the underlying processes of bone formation and bone resorption occurring throughout the skeleton in response to the anabolic action induced by LY333334.

[2] = Female Patients, BSAP at 3 Months 10-14.99 pM
[3] = Female Patients, BSAP at 3 Months 15-19.99 pM
[4] = Female Patients, BSAP at 3 Months <10 pM
[5] = Female Patients, BSAP at 3 Months ≧20 pM
[6] = Females, change in PICP at 1 month 50-99 pM, baseline PICP <100 pM
[7] = Females, change in PICP at 1 month 50-99 pM, baseline PICP ≧100 pM
[8] = Females, change in PICP at 1 month 100-149 pM, baseline PICP <100 pM
[9] = Females, change in PICP at 1 month 100-149 pM, baseline PICP ≧100 pM
[10] = Females, change in PICP at 1 month <50 pM, baseline PICP <100 pM
[11] = Females, change in PICP at 1 month <50 pM, baseline PICP ≧100 pM
[12] = Females, change in PICP at 1 month ≧150 pM, baseline PICP ≧100 pM
[13] = Male Patients, BSAP at 3 Months 10-14.99 pM
[14] = Male Patients, BSAP at 3 Months 15-19.99 pM
[15] = Male Patients, BSAP at 3 Months <10 pM
[16] = Male Patients, BSAP at 3 Months ≧20 pM
[17] = Males, change in PICP at 1 month 50-99 pM, baseline PICP <100 pM
[18] = Males, change in PICP at 1 month 50-99 pM, baseline PICP ≧100 pM
[19] = Males, change in PICP at 1 month 100-149 pM, baseline PICP <100 pM
[20] = Males, change in PICP at 1 month 100-149 pM, baseline PICP ≧100 pM
[21] = Males, change in PICP at 1 month <50 pM, baseline PICP <100 pM
[22] = Males, change in PICP at 1 month <50 pM, baseline PICP ≧100 pM
[23] = Males, change in PICP at 1 month ≧150 pM, baseline PICP <100 pM
[24] = Males, change in PICP at 1 month ≧150 pM, baseline PICP ≧100 pM
[25] = all patients with baseline PICP >100 pM and increase in PICP >100 pM, 12 months
[26] = male patients with baseline PICP >100 pM and increase in PICP >100 pM
[27] = postmenopausal women with baseline PICP >100 pM and increase in PICP >100 pM

## CC[C@H](C)[C@H](NC(=O)[C@H](CCC(=O)O)NC(=O)[C@H](CO)NC(=O)[C@@H](NC(=O)[C@@H](N)CO)C(C)C)C(=O)N[C@@H](CCC(N)=O)C(=O)N[C@@H](CC(C)C)C(=O)N[C@@H](CCSC)C(=O)N[C@@H](Cc1cnc[nH]1)C(=O)N[C@@H](CC(N)=O)C(=O)N[C@@H](CC(C)C)C(=O)NCC(=O)N[C@@H](CCCCN)C(=O)N[C@@H](Cc1cnc[nH]1)C(=O)N[C@@H](CC(C)C)C(=O)N[C@@H](CC(N)=O)C(=O)N[C@@H](CO)C(=O)N[C@@H](CCSC)C(=O)N[C@@H](CCC(=O)O)C(=O)N[C@@H](CCCN=C(N)N)C(=O)N[C@H](C(=O)N[C@@H](CCC(=O)O)C(=O)N[C@@H](Cc1c[nH]c2ccccc12)C(=O)N[C@@H](CC(C)C)C(=O)N[C@@H](CCCN=C(N)N)C(=O)N[C@@H](CCCCN)C(=O)N[C@@H](CCCCN)C(=O)N[C@@H](CC(C)C)C(=O)N[C@@H](CCC(N)=O)C(=O)N[C@@H](CC(=O)O)C(=O)N[C@H](C(=O)N[C@@H](Cc1cnc[nH]1)C(=O)N[C@@H](CC(N)=O)C(=O)N[C@@H](Cc1ccccc1)C(=O)O)C(C)C)C(C)C [LY333334]
[1]; [2]
  % Change in Spine BMD at 12 Months, 5th-95th Percentiles: 1.5-18.9%
  % Change in Spine BMD at 12 Months, Mean: 9.4%
[1]; [3]
  % Change in Spine BMD at 12 Months, 5th-95th Percentiles: 3.4-24.7%
  % Change in Spine BMD at 12 Months, Mean: 12.2%
[1]; [4]
  % Change in Spine BMD at 12 Months, 5th-95th Percentiles: 0.5-15.3%
  % Change in Spine BMD at 12 Months, Mean: 7.2%
[1]; [5]
  % Change in Spine BMD at 12 Months, 5th-95th Percentiles: 4.6-20.9%
  % Change in Spine BMD at 12 Months, Mean: 12.9%
[1]; [6]
  % Change in Spine BMD at 12 Months, 5th-95th Percentiles: 2.2-19.0%
  % Change in Spine BMD at 12 Months, Mean: 9.5%
[1]; [7]
  % Change in Spine BMD at 12 Months, 5th-95th Percentiles: 3.6-18.8%
  % Change in Spine BMD at 12 Months, Mean: 10.4%
[1]; [8]
  % Change in Spine BMD at 12 Months, 5th-95th Percentiles: 2.9-16.1%
  % Change in Spine BMD at 12 Months, Mean: 10.4%
[1]; [9]
  % Change in Spine BMD at 12 Months, 5th-95th Percentiles: 6.9-19.7%
  % Change in Spine BMD at 12 Months, Mean: 12.6%
[1]; [10]
  % Change in Spine BMD at 12 Months, 5th-95th Percentiles: −0.7-12.4%
  % Change in Spine BMD at 12 Months, Mean: 5.7%
[1]; [11]
  % Change in Spine BMD at 12 Months, 5th-95th Percentiles: 2.9-17.3%
  % Change in Spine BMD at 12 Months, Mean: 9.0%
[1]; Females, change in PICP at 1 month ≧150 pM, baseline PICP <100 pM
  % Change in Spine BMD at 12 Months, Mean: 13.7%
[1]; [12]
  % Change in Spine BMD at 12 Months, 5th-95th Percentiles: 11.9-31.1%
  % Change in Spine BMD at 12 Months, Mean: 18.5%
[1]; [13]
  % Change in Spine BMD at 12 Months, 5th-95th Percentiles: 1.9-14.9%
  % Change in Spine BMD at 12 Months, Mean: 7.9%
[1]; [14]
  % Change in Spine BMD at 12 Months, 5th-95th Percentiles: 3.0-15.0%
  % Change in Spine BMD at 12 Months, Mean: 8.3%
[1]; [15]
  % Change in Spine BMD at 12 Months, 5th-95th Percentiles: 1.6-13.0%
  % Change in Spine BMD at 12 Months, Mean: 7.1%
[1]; [16]
  % Change in Spine BMD at 12 Months, 5th-95th Percentiles: 1.6-19.6%
  % Change in Spine BMD at 12 Months, Mean: 10.0%
[1]; [17]
  % Change in Spine BMD at 12 Months, 5th-95th Percentiles: 4.6-18.1%
  % Change in Spine BMD at 12 Months, Mean: 9.4%
[1]; [18]
  % Change in Spine BMD at 12 Months, 5th-95th Percentiles: 3.6-15.8%
  % Change in Spine BMD at 12 Months, Mean: 8.7%
[1]; [19]
  % Change in Spine BMD at 12 Months, 5th-95th Percentiles: 7.2-14.0%
  % Change in Spine BMD at 12 Months, Mean: 11.1%
[1]; [20]
  % Change in Spine BMD at 12 Months, 5th-95th Percentiles: 4.6-18.6%
  % Change in Spine BMD at 12 Months, Mean: 11.3%
[1]; [21]
  % Change in Spine BMD at 12 Months, 5th-95th Percentiles: 1.2-11.7%
  % Change in Spine BMD at 12 Months, Mean: 4.8%
[1]; [22]
  % Change in Spine BMD at 12 Months, 5th-95th Percentiles: 1.5-11.7%
  % Change in Spine BMD at 12 Months, Mean: 6.9%
[1]; [23]
  % Change in Spine BMD at 12 Months, 5th-95th Percentiles: 2.7-20.8%
  % Change in Spine BMD at 12 Months, Mean: 10.7%
[1]; [24]
  % Change in Spine BMD at 12 Months, 5th-95th Percentiles: 6.0-18.0%
  % Change in Spine BMD at 12 Months, Mean: 10.2%
[1]; [25]
  mean increase in total lumbar spine BMD: 13.6%
  minimum increase in total lumbar spine BMD: ≥ 4.3%
[1]; [26]
  mean increase in total lumbar spine BMD: 10.8%
  minimum increase in total lumbar spine BMD: ≥ 4.3%
[1]; men who did not meet the PICP criteria
  mean increase in total lumbar spine BMD: 7.4%
[1]; patients who did not meet the PICP criteria, 12 months
  mean increase in total lumbar spine BMD: 8.2%
[1]; [27]
  mean increase in total lumbar spine BMD: 16.0%
  minimum increase in total lumbar spine BMD: ≥ 5.9%
[1]; women who did not meet the PICP criteria
  mean increase in total lumbar spine BMD: 8.8%
PICP, BSAP, NTX, DPD; 20 and 40 μg/day
  time of BSAP peak response after initiation of treatment: 6 months
  time of maximum PICP: ≤ 1 month
  time of peak urinary DPD concentrations after initiation of treatment: 6 months
PICP, BSAP, NTX, DPD; 40 vs 20 μg/day
  BSAP response in 40 μg/day group greater than 20 μg/day group: 73%
  DPD response in 40 μg/day group greater than 20 μg/day group: 83%
  NTX response in 40 μg/day group greater than 20 μg/day group: 87%
  PICP response in 40 μg/day group greater than 20 μg/day group: 94%
PICP, BSAP, NTX, DPD; about 1 month of therapy
  minimum increase in PICP level in the entire study population: at least 20 pM
PICP, BSAP, NTX, DPD; last observation while on therapy
  time of peak urinary NTX excretion: 12 months
